Key:
[1] = system: Puccinia recondita f. sp. Tritici; assay: Fungicidal activity against Puccinia recondita f. sp. Tritici / wheat / leaf disc preventative (brown rust); format: in vivo; conditions: foliar, 200 ppm in the applied formulation, wheat leaf segments cv. Kanzler, inoculated 1 day after application, vs untreated control, read-out: disease control
Outline: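 Preventative leaf-segment test: compound at 200 ppm applied by spray to Kanzler wheat, with spore inoculation following after one day. Disease control relative to untreated check read 7 to 9 days post-application, incubation at 19° C., 75% relative humidity, 12 h light/12 h dark.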

[2] = system: Puccinia recondita f. sp. Tritici; assay: Fungicidal activity against Puccinia recondita f. sp. Tritici / wheat / leaf disc curative (brown rust); format: in vivo; conditions: foliar, 24 h, 200 ppm in the applied formulation, wheat leaf segments cv. Kanzler, applied 1 day after inoculation, vs untreated control, read-out: disease control
Protocol: Leaf disks or leaf segments of various plant species are cut from plants grown in a greenhouse. The cut leaf disks or segments are placed in multiwell plates (24-well format) onto water agar. The leaf disks are sprayed with a test solution before (preventative) or after (curative) inoculation. Compounds to be tested are prepared as DMSO solutions (max. 10 mg/ml) which are diluted to the appropriate concentration with 0.025% Tween20 just before spraying. The inoculated leaf disks or segments are incubated under defined conditions (temperature, relative humidity, light, etc.) according to the respective test system. A single evaluation of disease level is carried out 3 to 14 days after inoculation, depending on the pathosystem. Percent disease control relative to the untreated check leaf disks or segments is then calculated.
Wheat leaf segments cv. Kanzler are placed on agar in multiwell plates (24-well format). The leaf segments are then inoculated with a spore suspension of the fungus. Plates were stored in darkness at 19° C. and 75% relative humidity. The formulated test compound diluted in water was applied 1 day after inoculation. The leaf segments were incubated at 19° C. and 75% relative humidity under a light regime of 12 hours light/12 hours darkness in a climate cabinet and the activity of a compound was assessed as percent disease control compared to untreated when an appropriate level of disease damage appears in untreated check leaf segments (6 to 8 days after application).
The following compounds at 200 ppm in the applied formulation give at least 80% disease control in this test when compared to untreated control leaf disks under the same conditions, which show extensive disease development.

Phakopsora pachyrhizi = assay: Fungicidal activity against Phakopsora pachyrhizi / soybean / leaf disc preventative (Asian soybean rust); format: in vivo; conditions: foliar, 200 ppm in the applied formulation, soybean leaf disks, vs untreated control, read-out: disease control
Outline: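 Soybean leaf discs on water agar sprayed with compound diluted in water, then inoculated with spores on the lower surface one day later. Kept 24-36 h dark, 20 °C, 75% rh, then 12 h light/12 h dark. Percent disease control versus untreated scored 12-14 days after application.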

[3] = system: Glomerella lagenarium (Colletotrichum lagenarium); assay: Fungicidal activity against Glomerella lagenarium (Colletotrichum lagenarium) liquid culture / cucumber / preventative (anthracnose); format: cell-based; conditions: Colletotrichum orbiculare, 72 h; 20 ppm in the applied formulation; liquid culture (PDB), growth inhibition measured photometrically 3 to 4 days after application; vs untreated control; read-out: disease control
Outline: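 Cryostored conidia mixed into potato dextrose broth and added to DMSO compound solution in microtiter plates. Incubated at 24 °C. Growth inhibition read photometrically 3–4 days after application as percent activity versus untreated check.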

NCCON=CCNC(=O)c1ccc(-c2noc(C(F)(F)F)n2)cc1 [Compound 1.66, N-[2-(2-aminoethoxy-imino)ethyl]-4-[5-(trifluoromethyl)-1,2,4-oxadiazol-3-yl]benzamide]
≥ 80%: pest or weed control at 200 ppm [1] | pest or weed control at 200 ppm [2] | pest or weed control at 200 ppm (Phakopsora pachyrhizi) | inhibition of growth at 20 ppm [3]

CC(CNC(=O)c1ccc(-c2noc(C(F)(F)F)n2)cc1)=NOCCO [Compound 1.104]
≥ 80%: pest or weed control at 200 ppm [1] | pest or weed control at 200 ppm [2] | pest or weed control at 200 ppm (Phakopsora pachyrhizi) | inhibition of growth at 20 ppm [3]

CCCON=CCNC(=O)c1ccc(-c2noc(C(F)(F)F)n2)cc1 [Compound 1.72, N-(2-propoxyiminoethyl)-4-[5-(trifluoromethyl)-1,2,4-oxadiazol-3-yl]benzamide]
≥ 80%: pest or weed control at 200 ppm [1] | pest or weed control at 200 ppm [2] | pest or weed control at 200 ppm (Phakopsora pachyrhizi) | inhibition of growth at 20 ppm [3]

O=C(NCC=NOCCO)c1ccc(-c2noc(C(F)(F)F)n2)cc1 [Compound 1.60, N-[2-(2-hydroxyethoxy-imino)ethyl]-4-[5-(trifluoromethyl)-1,2,4-oxadiazol-3-yl]benzamide]
≥ 80%: pest or weed control at 200 ppm [1] | pest or weed control at 200 ppm [2] | pest or weed control at 200 ppm (Phakopsora pachyrhizi) | inhibition of growth at 20 ppm [3]

C=CCON=CCNC(=O)c1ccc(-c2noc(C(F)(F)F)n2)cc1 [Compound 1.91, N-(2-allyloxyiminoethyl)-4-[5-(trifluoromethyl)-1,2,4-oxadiazol-3-yl]benzamide]
≥ 80%: pest or weed control at 200 ppm [1] | pest or weed control at 200 ppm [2] | pest or weed control at 200 ppm (Phakopsora pachyrhizi) | inhibition of growth at 20 ppm [3]

CC(CNC(=O)c1ccc(-c2noc(C(F)(F)F)n2)cc1)=NOC(C)C [Compound 1.138, N-(2-isopropoxyimino-propyl)-4-[5-(trifluoromethyl)-1,2,4-oxadiazol-3-yl]benzamide]
≥ 80%: pest or weed control at 200 ppm [1] | pest or weed control at 200 ppm [2] | pest or weed control at 200 ppm (Phakopsora pachyrhizi) | inhibition of growth at 20 ppm [3]

O=C(NCC=NOC1COC1)c1ccc(-c2noc(C(F)(F)F)n2)cc1 [Compound 1.102, N-[2-(oxetan-3-yloxyimino)ethyl]-4-[5-(trifluoromethyl)-1,2,4-oxadiazol-3-yl]benzamide]
≥ 80%: pest or weed control at 200 ppm [1] | pest or weed control at 200 ppm [2] | pest or weed control at 200 ppm (Phakopsora pachyrhizi) | inhibition of growth at 20 ppm [3]

C=CCON=CC(C)NC(=O)c1ccc(-c2noc(C(F)(F)F)n2)cc1 (centres unmarked) [Compound 1.46, N-(2-allyloxyimino-1-methyl-ethyl)-4-[5-(trifluoromethyl)-1,2,4-oxadiazol-3-yl]benzamide]
≥ 80%: pest or weed control at 200 ppm [1] | pest or weed control at 200 ppm [2] | pest or weed control at 200 ppm (Phakopsora pachyrhizi) | inhibition of growth at 20 ppm [3]

CC(C=NOCCO)NC(=O)c1ccc(-c2noc(C(F)(F)F)n2)cc1 (centres unmarked) [Compound 1.15, N-[2-(2-hydroxyethoxy-imino)-1-methyl-ethyl]-4-[5-(trifluoromethyl)-1,2,4-oxadiazol-3-yl]benzamide]
≥ 80%: pest or weed control at 200 ppm [1] | pest or weed control at 200 ppm [2] | pest or weed control at 200 ppm (Phakopsora pachyrhizi) | inhibition of growth at 20 ppm [3]

O=C(NCC=NOCC1CC1)c1ccc(-c2noc(C(F)(F)F)n2)cc1 [Compound 1.101, N-[2-(cyclopropyl-methoxyimino)ethyl]-4-[5-(trifluoromethyl)-1,2,4-oxadiazol-3-yl]benzamide]
≥ 80%: pest or weed control at 200 ppm [1] | pest or weed control at 200 ppm [2] | pest or weed control at 200 ppm (Phakopsora pachyrhizi) | inhibition of growth at 20 ppm [3]

CC(ON=CCNC(=O)c1ccc(-c2noc(C(F)(F)F)n2)cc1)C(=O)O (centres unmarked) [Compound 1.82, 2-[2-[[4-[5-(trifluoromethyl)-1,2,4-oxadiazol-3-yl]benzoyl]amino]ethylideneamino] oxypropanoic acid]
≥ 80%: pest or weed control at 200 ppm [1] | pest or weed control at 200 ppm [2] | pest or weed control at 200 ppm (Phakopsora pachyrhizi) | inhibition of growth at 20 ppm [3]

CC(CNC(=O)c1ccc(-c2noc(C(F)(F)F)n2)cc1)=NOCCN [Compound 1.110, N-[2-(2-aminoethoxy-imino)propyl]-4-[5-(trifluoromethyl)-1,2,4-oxadiazol-3-yl]benzamide]
≥ 80%: pest or weed control at 200 ppm [1] | pest or weed control at 200 ppm [2] | pest or weed control at 200 ppm (Phakopsora pachyrhizi) | inhibition of growth at 20 ppm [3]

CC(C)ON=CCNC(=O)c1ccc(-c2noc(C(F)(F)F)n2)cc1 [Compound 1.94, N-(2-isopropoxyimino-ethyl)-4-[5-(trifluoromethyl)-1,2,4-oxadiazol-3-yl]benzamide]
≥ 80%: pest or weed control at 200 ppm [1] | pest or weed control at 200 ppm [2] | pest or weed control at 200 ppm (Phakopsora pachyrhizi) | inhibition of growth at 20 ppm [3]

C[C@@H](ON=CCNC(=O)c1ccc(-c2noc(C(F)(F)F)n2)cc1)C(=O)O [Compound 1.74, (2R)-2-[2-[[4-[5-(trifluoromethyl)-1,2,4-oxadiazol-3-yl]benzoyl]amino]ethylideneamino] oxypropanoic acid]
≥ 80%: pest or weed control at 200 ppm [1] | pest or weed control at 200 ppm [2] | pest or weed control at 200 ppm (Phakopsora pachyrhizi) | inhibition of growth at 20 ppm [3]

CO/N=C/CNC(=O)c1ccc(-c2noc(C(F)(F)F)n2)cc1F [Compound 1.4, 2-fluoro-N-[(2E)-2-methoxyimino-ethyl]-4-[5-(trifluoromethyl)-1,2,4-oxadiazol-3-yl]benzamide]
≥ 80%: pest or weed control at 200 ppm [1] | pest or weed control at 200 ppm [2] | pest or weed control at 200 ppm (Phakopsora pachyrhizi) | inhibition of growth at 20 ppm [3]

O=C(NCC=NOCC(F)(F)F)c1ccc(-c2noc(C(F)(F)F)n2)cc1 [Compound 1.95, N-[2-(2,2,2-trifluoroethoxy-imino)ethyl]-4-[5-(trifluoromethyl)-1,2,4-oxadiazol-3-yl]benzamide]
≥ 80%: pest or weed control at 200 ppm [1] | pest or weed control at 200 ppm [2] | pest or weed control at 200 ppm (Phakopsora pachyrhizi) | inhibition of growth at 20 ppm [3]

CC(CNC(=O)c1ccc(-c2noc(C(F)(F)F)n2)cc1)=NOCC1CC1 [Compound 1.145, N-[2-(cyclopropyl-methoxyimino)propyl]-4-[5-(trifluoromethyl)-1,2,4-oxadiazol-3-yl]benzamide]
≥ 80%: pest or weed control at 200 ppm [1] | pest or weed control at 200 ppm [2] | pest or weed control at 200 ppm (Phakopsora pachyrhizi) | inhibition of growth at 20 ppm [3]

From patent US11192867B2, “Microbiocidal oxadiazole derivatives” (SYNGENTA PARTICIPATIONS AG, priority 2016, dated 2021)
